Experimental data reported in paper PMC10893631, “Receptor-based pharmacophore modeling, molecular docking, synthesis and biological evaluation of novel VEGFR-2, FGFR-1, and BRAF multi-kinase inhibitors” (BMC Chemistry, 2024).

How the values were obtained:
Assay in all cases: NCI SRB growth inhibition (single dose 10 µM / five-dose)
Format in all cases: cell-based, human
[1] = system: A498; details: Homo sapiens; for inhibition at 10 µM: A498 (Renal cancer), read-out: GI%; for GI50: A498, Renal cancer, five-dose
Procedure, shortened: (§1)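 Cytotoxicity in the NCI panel of sixty human tumour lines was measured by sulforhodamine B protein staining. Each agent was tested in DMSO-derived dilutions at five concentrations, and TGI was read where treated absorbance equalled time-zero absorbance.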

[2] = system: SR; details: Homo sapiens; for inhibition at 10 µM: SR (Leukemia), read-out: GI%; for GI50: SR, Leukemia, five-dose
Procedure, shortened: as §1

[3] = system: A549/ATCC; details: Homo sapiens; for inhibition at 10 µM: A549/ATCC (Non-small cell lung cancer), read-out: GI%; for GI50: A549/ATCC, Non-small cell lung cancer, five-dose
Procedure, shortened: as §1

[4] = system: SW-620; details: Homo sapiens; for inhibition at 10 µM: SW-620 (Colon cancer), read-out: GI%; for GI50: SW-620, Colon cancer, five-dose
Procedure, shortened: as §1

[5] = system: OVCAR-8; details: Homo sapiens; for inhibition at 10 µM: OVCAR-8 (Ovarian cancer), read-out: GI%; for GI50: OVCAR-8, Ovarian cancer, five-dose
Procedure, shortened: as §1

[6] = system: MDA-MB-435; details: Homo sapiens; for inhibition at 10 µM: MDA-MB-435 (Melanoma), read-out: GI%; for GI50: MDA-MB-435, Melanoma, five-dose
Procedure, shortened: as §1

[7] = system: ACHN; details: Homo sapiens; for inhibition at 10 µM: ACHN (Renal cancer), read-out: GI%; for GI50: ACHN, Renal cancer, five-dose
Procedure, shortened: as §1

[8] = system: EKVX; details: Homo sapiens; for inhibition at 10 µM: EKVX (Non-small cell lung cancer), read-out: GI%; for GI50: EKVX, Non-small cell lung cancer, five-dose
Procedure, shortened: as §1

[9] = system: HCT-15; details: Homo sapiens; for inhibition at 10 µM: HCT-15 (Colon cancer), read-out: GI%; for GI50: HCT-15, Colon cancer, five-dose
Procedure, shortened: as §1

[10] = system: HOP-62; details: Homo sapiens; for inhibition at 10 µM: HOP-62 (Non-small cell lung cancer), read-out: GI%; for GI50: HOP-62, Non-small cell lung cancer, five-dose
Procedure, shortened: as §1

[11] = system: HS 578 T; details: Homo sapiens; for inhibition at 10 µM: HS 578 T (Breast cancer), read-out: GI%; for GI50: HS 578 T, Breast cancer, five-dose
Procedure, shortened: as §1

[12] = system: CAKI-1; details: Homo sapiens; for inhibition at 10 µM: CAKI-1 (Renal cancer), read-out: GI%; for GI50: CAKI-1, Renal cancer, five-dose
Procedure, shortened: as §1

[13] = system: SNB-19; details: Homo sapiens; for inhibition at 10 µM: SNB-19 (CNS cancer), read-out: GI%; for GI50: SNB-19, CNS cancer, five-dose
Procedure, shortened: as §1

[14] = system: T-47D; details: Homo sapiens, T47D; for inhibition at 10 µM: T-47D (Breast cancer), read-out: GI%; for GI50: T-47D, Breast cancer, five-dose
Procedure, shortened: as §1

[15] = system: MALME-3 M; details: Homo sapiens; for inhibition at 10 µM: MALME-3 M (Melanoma), read-out: GI%; for GI50: MALME-3 M, Melanoma, five-dose
Procedure, shortened: as §1

[16] = system: HCT-116; details: Homo sapiens, HCT-116; for inhibition at 10 µM: read-out: GI%
Procedure, shortened: as §1

[17] = system: HCC-2998; details: Homo sapiens; for inhibition at 10 µM: HCC-2998 (Colon cancer), read-out: GI%; for GI50: HCC-2998, Colon cancer, five-dose
Procedure, shortened: as §1

[18] = system: MDA-MB-468; details: Homo sapiens; for inhibition at 10 µM: MDA-MB-468 (Breast cancer), read-out: GI%; for GI50: MDA-MB-468, Breast cancer, five-dose
Procedure, shortened: as §1

[19] = system: NCI-H460; details: Homo sapiens; for inhibition at 10 µM: NCI-H460 (Non-small cell lung cancer), read-out: GI%; for GI50: NCI-H460, Non-small cell lung cancer, five-dose
Procedure, shortened: as §1

[20] = system: TK-10; details: Homo sapiens; for inhibition at 10 µM: TK-10 (Renal cancer), read-out: GI%; for GI50: TK-10, Renal cancer, five-dose
Procedure, shortened: as §1

[21] = system: COLO 205; details: Homo sapiens; for inhibition at 10 µM: COLO 205 (Colon cancer), read-out: GI%; for GI50: COLO 205, Colon cancer, five-dose
Procedure, shortened: as §1

[22] = system: MOLT-4; details: Homo sapiens; for inhibition at 10 µM: MOLT-4 (Leukemia), read-out: GI%; for GI50: MOLT-4, Leukemia, five-dose
Procedure, shortened: as §1

[23] = system: OVCAR-5; details: Homo sapiens; for inhibition at 10 µM: OVCAR-5 (Ovarian cancer), read-out: GI%; for GI50: OVCAR-5, Ovarian cancer, five-dose
Procedure, shortened: as §1

[24] = system: MCF7; details: Homo sapiens; for inhibition at 10 µM: MCF7 (Breast cancer), read-out: GI%; for GI50: MCF7, Breast cancer, five-dose
Procedure, shortened: as §1

## COc1ccc(-c2nc3cc(C(=O)NN=Cc4ccccc4O)ccc3[nH]2)cc1 [8h, N'-(2-Hydroxybenzylidene)-2-(4-methoxyphenyl)-1H-benzo[d]imidazole-5-carbohydrazide]
[1]
  inhibition at 10 µM: 54.5%
  GI50: 9210 nM
[2]
  inhibition at 10 µM: 85.9%
  GI50: 1170 nM
[3]
  inhibition at 10 µM: > 100%
  GI50: 3030 nM
[4]
  inhibition at 10 µM: > 100%
  GI50: 1750 nM
[5]
  inhibition at 10 µM: > 100%
  GI50: 1970 nM
[6]
  inhibition at 10 µM: > 100%
  GI50: 1950 nM
[7]
  inhibition at 10 µM: > 100%
  GI50: 3020 nM
[8]
  inhibition at 10 µM: 92.2%
  GI50: 3240 nM
[9]
  inhibition at 10 µM: > 100%
  GI50: 1250 nM
[10]
  inhibition at 10 µM: > 100%
  GI50: 5090 nM
[11]
  inhibition at 10 µM: > 100%
  GI50: 940 nM
[12]
  inhibition at 10 µM: > 100%
  GI50: 1780 nM
[13]
  inhibition at 10 µM: > 100%
  GI50: 1760 nM
[14]
  inhibition at 10 µM: > 100%
  GI50: 2600 nM
[15]
  inhibition at 10 µM: > 100%
  GI50: 1770 nM
[16]
  GI50: 4930 nM
  inhibition at 10 µM: > 100%
[17]
  inhibition at 10 µM: 99.6%
  GI50: 4430 nM
[18]
  inhibition at 10 µM: > 100%
  GI50: 2980 nM
[19]
  inhibition at 10 µM: > 100%
  GI50: 1870 nM
[20]
  inhibition at 10 µM: > 100%
  GI50: 6190 nM
[21]
  inhibition at 10 µM: > 100%
  GI50: 2900 nM
[22]
  inhibition at 10 µM: 88.5%
  GI50: 1700 nM
[23]
  inhibition at 10 µM: > 100%
  GI50: 6550 nM
[24]
  inhibition at 10 µM: > 100%
  GI50: 1670 nM

## COc1ccc(-c2nc3cc(C(=O)NN=Cc4cccc(O)c4)ccc3[nH]2)cc1 [8i, N'-(3-Hydroxybenzylidene)-2-(4-methoxyphenyl)-1H-benzo[d]imidazole-5-carbohydrazide]
[1]
  inhibition at 10 µM: < 5%
[2]
  inhibition at 10 µM: 81.9%
[3]
  inhibition at 10 µM: 11.2%
[4]
  inhibition at 10 µM: 6.72%
[5]
  inhibition at 10 µM: 38.1%
[6]
  inhibition at 10 µM: 63.8%
[7]
  inhibition at 10 µM: < 5%
[8]
  inhibition at 10 µM: 23.4%
[9]
  inhibition at 10 µM: 5.17%
[10]
  inhibition at 10 µM: 42%
[11]
  inhibition at 10 µM: 52.6%
[12]
  inhibition at 10 µM: 5.16%
[13]
  inhibition at 10 µM: 15.8%
[14]
  inhibition at 10 µM: 86.8%
[15]
  inhibition at 10 µM: > 100%
[16]
  inhibition at 10 µM: 42.8%
[17]
  inhibition at 10 µM: 14.9%
[18]
  inhibition at 10 µM: 54.6%
[19]
  inhibition at 10 µM: 5.05%
[20]
  inhibition at 10 µM: < 5%
[21]
  inhibition at 10 µM: 32.4%
[22]
  inhibition at 10 µM: 79%
[23]
  inhibition at 10 µM: < 5%
[24]
  inhibition at 10 µM: 88.2%

## COc1ccc(-c2nc3cc(C(=O)NN=Cc4cccc(OC)c4)ccc3[nH]2)cc1 [8j, N'-(3-Methoxybenzylidene)-2-(4-methoxyphenyl)-1H-benzo[d]imidazole-5-carbohydrazide]
[1]
  inhibition at 10 µM: < 5%
  GI50: 21500 nM
[2]
  inhibition at 10 µM: 92.7%
  GI50: 10600 nM
[3]
  inhibition at 10 µM: > 100%
  GI50: 3050 nM
[4]
  inhibition at 10 µM: > 100%
  GI50: 3100 nM
[5]
  inhibition at 10 µM: > 100%
  GI50: 1920 nM
[6]
  inhibition at 10 µM: 76.5%
  GI50: 6250 nM
[7]
  inhibition at 10 µM: > 100%
  GI50: 4250 nM
[8]
  inhibition at 10 µM: > 100%
  GI50: 2760 nM
[9]
  inhibition at 10 µM: 79.2%
  GI50: 3920 nM
[10]
  inhibition at 10 µM: > 100%
  GI50: 2700 nM
[11]
  inhibition at 10 µM: > 100%
  GI50: 1900 nM
[12]
  inhibition at 10 µM: 85.3%
  GI50: 2810 nM
[13]
  inhibition at 10 µM: > 100%
  GI50: 3180 nM
[14]
  inhibition at 10 µM: > 100%
  GI50: 2620 nM
[15]
  inhibition at 10 µM: > 100%
  GI50: 2450 nM
[16]
  GI50: 2990 nM
  inhibition at 10 µM: > 100%
[17]
  inhibition at 10 µM: 88.5%
  GI50: 3520 nM
[18]
  inhibition at 10 µM: > 100%
  GI50: 3060 nM
[19]
  inhibition at 10 µM: > 100%
  GI50: 1850 nM
[20]
  inhibition at 10 µM: > 100%
  GI50: 12600 nM
[21]
  inhibition at 10 µM: > 100%
  GI50: 4300 nM
[22]
  inhibition at 10 µM: 59.4%
  GI50: 22600 nM
[23]
  inhibition at 10 µM: 91.2%
  GI50: 4690 nM
[24]
  inhibition at 10 µM: > 100%
  GI50: 2500 nM
